Assay results published in ChEMBL document CHEMBL3885861, “Open TG-GATES”.

Organism: Rattus norvegicus
Assay: Open TG-GATES - Regimen: Single
Format: toxicity, organism-based, Sprague-Dawley
Set-up: regimen Single, gender Male, age 6 weeks
Details: in vivo, po, 45 mg/kg, route gavage, dose level High; for APTT / Bas / Eos / Fbg / Hb / Ht / Lym / MCH / MCHC / MCV / Mono / Neu / PT / Plat / RBC / Ret / WBC: tissue Blood; for KIDNEY_L / KIDNEY_R / KIDNEY_TOTAL: tissue Kidney; for LIVER: tissue Liver; for A/G / ALP / ALT / AST / BUN / CRE / Ca / Cl / DBIL / GLC / IP / K / LDH / Na / PL / RALB / TBIL / TC / TG / TP / gamma-GTP: tissue Plasma

CC(=N)S [THIOACETAMIDE]
TERMINAL_BW (3 h): 189.5 g
APTT (3 h): 17.3 s
Bas (3 h): 0%
Eos (3 h): 0.6%
Fbg (3 h): 232.5 mg/dL
Hb (3 h): 13.5 g/dL
Ht (3 h): 41%
Lym (3 h): 71.2%
MCH (3 h): 21.6 pg
MCHC (3 h): 33%
MCV (3 h): 65.4 fL
Mono (3 h): 8.6%
Neu (3 h): 20%
PT (3 h): 12.4 s
Plat (3 h): 115.5 x10_4/uL
RBC (3 h): 627 x10_4/ul
Ret (3 h): 9.5%
WBC (3 h): 129.7 x10_2/uL
KIDNEY_L (3 h): 0.8 g
KIDNEY_R (3 h): 0.8 g
KIDNEY_TOTAL (3 h): 1.7 g
LIVER (3 h): 8.7 g
A/G (3 h): 2
ALP (3 h): 923 IU/L
ALT (3 h): 36 IU/L
AST (3 h): 73.6 IU/L
BUN (3 h): 13.6 mg/dL
CRE (3 h): 0.5 mg/dL
Ca (3 h): 10.9 mg/dL
Cl (3 h): 104.6 meq/L
DBIL (3 h): 0 mg/dL
GLC (3 h): 169.2 mg/dL
IP (3 h): 9.7 mg/dL
K (3 h): 4.4 meq/L
LDH (3 h): 200.6 IU/L
Na (3 h): 139.6 meq/L
PL (3 h): 137.6 mg/dL
RALB (3 h): 3.8 g/dL
TBIL (3 h): 0.4 mg/dL
TC (3 h): 84 mg/dL
TG (3 h): 54.8 mg/dL
TP (3 h): 5.6 g/dL
gamma-GTP (3 h): 2 IU/L
TERMINAL_BW (6 h): 187 g
APTT (6 h): 17.2 s
Bas (6 h): 0%
Eos (6 h): 0.2%
Fbg (6 h): 230.4 mg/dL
Hb (6 h): 13.7 g/dL
Ht (6 h): 41.3%
Lym (6 h): 71%
MCH (6 h): 21.8 pg
MCHC (6 h): 33.1%
MCV (6 h): 66 fL
Mono (6 h): 6.2%
Neu (6 h): 22.2%
PT (6 h): 12.9 s
Plat (6 h): 104.7 x10_4/uL
RBC (6 h): 627.2 x10_4/ul
Ret (6 h): 9.9%
WBC (6 h): 118 x10_2/uL
KIDNEY_L (6 h): 0.8 g
KIDNEY_R (6 h): 0.8 g
KIDNEY_TOTAL (6 h): 1.6 g
LIVER (6 h): 8 g
A/G (6 h): 1.9
ALP (6 h): 836.6 IU/L
ALT (6 h): 33.8 IU/L
AST (6 h): 75.2 IU/L
BUN (6 h): 10.2 mg/dL
CRE (6 h): 0.6 mg/dL
Ca (6 h): 10.4 mg/dL
Cl (6 h): 104.4 meq/L
DBIL (6 h): 0.024 mg/dL
GLC (6 h): 162.4 mg/dL
IP (6 h): 9.9 mg/dL
K (6 h): 4.7 meq/L
LDH (6 h): 155.4 IU/L
Na (6 h): 138.2 meq/L
PL (6 h): 129.8 mg/dL
RALB (6 h): 3.6 g/dL
TBIL (6 h): 0.4 mg/dL
TC (6 h): 79.4 mg/dL
TG (6 h): 34.8 mg/dL
TP (6 h): 5.5 g/dL
gamma-GTP (6 h): 1.8 IU/L
TERMINAL_BW (9 h): 189.4 g
APTT (9 h): 17 s
Bas (9 h): 0%
Eos (9 h): 0.6%
Fbg (9 h): 224.4 mg/dL
Hb (9 h): 13.1 g/dL
Ht (9 h): 39.6%
Lym (9 h): 71%
MCH (9 h): 21.8 pg
MCHC (9 h): 33%
MCV (9 h): 66 fL
Mono (9 h): 7.4%
Neu (9 h): 21%
PT (9 h): 14.1 s
Plat (9 h): 100.8 x10_4/uL
RBC (9 h): 600 x10_4/ul
Ret (9 h): 10%
WBC (9 h): 126.2 x10_2/uL
KIDNEY_L (9 h): 0.8 g
KIDNEY_R (9 h): 0.9 g
KIDNEY_TOTAL (9 h): 1.7 g
LIVER (9 h): 8 g
A/G (9 h): 2
ALP (9 h): 886 IU/L
ALT (9 h): 41.2 IU/L
AST (9 h): 93.2 IU/L
BUN (9 h): 12.6 mg/dL
CRE (9 h): 0.5 mg/dL
Ca (9 h): 10.4 mg/dL
Cl (9 h): 104.6 meq/L
DBIL (9 h): 0.008 mg/dL
GLC (9 h): 168.4 mg/dL
IP (9 h): 10.4 mg/dL
K (9 h): 4.4 meq/L
LDH (9 h): 229.2 IU/L
Na (9 h): 137.4 meq/L
PL (9 h): 134.8 mg/dL
RALB (9 h): 3.6 g/dL
TBIL (9 h): 0.4 mg/dL
TC (9 h): 84.8 mg/dL
TG (9 h): 32.4 mg/dL
TP (9 h): 5.4 g/dL
gamma-GTP (9 h): 1.8 IU/L
TERMINAL_BW (24 h): 186.6 g
APTT (24 h): 21.2 s
Bas (24 h): 0%
Eos (24 h): 0.6%
Fbg (24 h): 232 mg/dL
Hb (24 h): 14.7 g/dL
Ht (24 h): 44.9%
Lym (24 h): 69.8%
MCH (24 h): 21.2 pg
MCHC (24 h): 32.8%
MCV (24 h): 64.6 fL
Mono (24 h): 1.8%
Neu (24 h): 27.8%
PT (24 h): 15.7 s
Plat (24 h): 104.8 x10_4/uL
RBC (24 h): 695.6 x10_4/ul
Ret (24 h): 9%
WBC (24 h): 91 x10_2/uL
KIDNEY_L (24 h): 0.9 g
KIDNEY_R (24 h): 0.9 g
KIDNEY_TOTAL (24 h): 1.8 g
LIVER (24 h): 9.3 g
A/G (24 h): 2
ALP (24 h): 1017.6 IU/L
ALT (24 h): 137.2 IU/L
AST (24 h): 713.8 IU/L
BUN (24 h): 15.2 mg/dL
CRE (24 h): 0.5 mg/dL
Ca (24 h): 10.4 mg/dL
Cl (24 h): 102.4 meq/L
DBIL (24 h): 0.046 mg/dL
GLC (24 h): 152 mg/dL
IP (24 h): 8.5 mg/dL
K (24 h): 4.7 meq/L
LDH (24 h): 1117 IU/L
Na (24 h): 135.8 meq/L
PL (24 h): 142 mg/dL
RALB (24 h): 3.8 g/dL
TBIL (24 h): 0.3 mg/dL
TC (24 h): 86.8 mg/dL
TG (24 h): 64.6 mg/dL
TP (24 h): 5.8 g/dL
gamma-GTP (24 h): 1 IU/L
